The record followed here is EP0115820A2, “Cephalosporin derivatives and process for their preparation” (Kaken Pharmaceutical Co., Ltd., priority 1983, dated 1984).

SMILES strings stand for the structures.

What all share (assay): Minimum inhibitory concentration (MIC)
Common to all, as to format: cell-based

The test system of experiment [1] is Escherichia coli NIHJ JC-2. Particulars: NIHJJC2; Escherichia coli NIHJ JC-2; bacterial suspension 10^6 cells/ml; sodium salts tested; read-out: Minimum inhibitory concentration. The source says:
(§1) The cephalosporin derivatives of the present invention are novel substances, and the antimicrobial activities of their sodium salts are shown by the minimum inhibitory concentrations (MIC, µg/ml) in Table 1, as compared with a typical known cephalosporin compound.

For experiment [2], the system named is Klebsiella pneumoniae No. 42. The following applies: Klebsiella pneumoniae No. 42; bacterial suspension 10^6 cells/ml; sodium salts tested; read-out: Minimum inhibitory concentration.
Text: as §1

For another experiment, the system named is Proteus vulgaris GN-76. The following applies: GN76; Proteus vulgaris GN-76; bacterial suspension 10^6 cells/ml; sodium salts tested; read-out: Minimum inhibitory concentration.
Text: as §1

Experiment [3] concerns Pseudomonas aeruginosa E-2. Particulars: E2; Pseudomonas aeruginosa E-2; bacterial suspension 10^6 cells/ml; sodium salts tested; read-out: Minimum inhibitory concentration.
Text: as §1

Experiment [4] deals with Pseudomonas aeruginosa K-13. Particulars: K13; Pseudomonas aeruginosa K-13; bacterial suspension 10^6 cells/ml; sodium salts tested; read-out: Minimum inhibitory concentration.
Text: as §1

The subject of experiment [5] is Pseudomonas aeruginosa Y-1. Particulars: Y1; Pseudomonas aeruginosa Y-1; bacterial suspension 10^6 cells/ml; sodium salts tested; read-out: Minimum inhibitory concentration.
Text: as §1

In experiment [6] the test system is Serratia marcescens No. 16-2. The following applies: NO.162; Serratia marcescens No. 16-2; bacterial suspension 10^6 cells/ml; sodium salts tested; read-out: Minimum inhibitory concentration.
Text: as §1

Experiment [7] has as its system Staphylococcus aureus 209 P JC-1. The following applies: 209PJC1; Staphylococcus aureus 209 P JC-1; bacterial suspension 10^6 cells/ml; sodium salts tested; read-out: Minimum inhibitory concentration.
Text: as §1

Turning to `CC(=O)Oc1cc(C(=O)NC(C(=O)N[C@@H]2C(=O)N3C(C(=O)O)=C(CSc4nnnn4C)CS[C@H]23)c2csc(N)n2)cc(OC(C)=O)c1OC(C)=O` (mixture of isomers) [Example 3, 7β-[DL-2-(3,4,5-triacetoxybenzoylamino)-2-(2-aminothiazol-4-yl)acetamidol-3-(l-methyl-lH-tetrazol-5-yl-thiomethyl)-3-cephem-4-carboxylic acid], the MIC in experiment [1] is 0.78 µg/mL; in experiment [2], below 0.05 µg/mL; in the experiment with Proteus vulgaris GN-76, 0.39 µg/mL; in experiment [3], 0.2 µg/mL; in experiment [4] it was 0.2 µg/mL; in experiment [5] it was 0.1 µg/mL. The MIC in experiment [6] turned out to be 0.05 µg/mL; in experiment [7], 0.78 µg/mL.
`CO[C@@]1(NC(=O)C(NC(=O)c2cc(OC(C)=O)c(OC(C)=O)c(OC(C)=O)c2)c2csc(N)n2)C(=O)N2C(C(=O)O)=C(CSc3nnnn3C)CS[C@@H]21` (mixture of isomers) [Example 11, 7α-methoxy-7β-[DL-2-(3,4,5-triacetoxy-benzoylamino)-2-(2-aminothiazol-4-yl)acetamido]-3-(1-methyl-lH-tetrazol-5-yl-thiomethyl)-3-cephem-4-carboxylic acid]: the MIC worked out at 6.25 µg/mL in experiment [1]; 0.39 µg/mL in experiment [2]; 3.12 µg/mL in the experiment on Proteus vulgaris GN-76; 0.39 µg/mL in experiment [3]; 0.78 µg/mL in experiment [4]; 0.78 µg/mL in experiment [5]. Further, the MIC in experiment [6] and in experiment [7] was 6.25 µg/mL throughout.
As for `CC(=O)OCC1=C(C(=O)O)N2C(=O)[C@@H](NC(=O)C(NC(=O)c3cc(OC(C)=O)c(OC(C)=O)c(OC(C)=O)c3)c3csc(N)n3)[C@H]2SC1` (mixture of isomers) [Example 18, 7β-[DL-2-(3,4,5-triacetoxybenzoylamino)-2-(2-aminothiazol-4-yl)acetamido]cephalosporic acid], the MIC turned out to be 0.39 µg/mL in experiment [1]; 0.1 µg/mL in experiment [2]; 0.78 µg/mL with Proteus vulgaris GN-76; 0.2 µg/mL in experiment [3]; 0.78 µg/mL in experiment [4]; 0.78 µg/mL in experiment [5]. The values for the MIC in experiment [6] and in experiment [7] were 3.12 µg/mL and 1.56 µg/mL, respectively.
For the compound `CO[C@@]1(NC(=O)C(NC(=O)c2cc(OC(C)=O)c(OC(C)=O)c(OC(C)=O)c2)c2csc(N)n2)C(=O)N2C(C(=O)O)=C(COC(C)=O)CS[C@@H]21` (mixture of isomers) [Example 7, 7α-methoxy-7β-[DL-2-(3,4,5-triacetoxy-benzoylamino)-2-(2-aminothiazol-4-yl)acetamido]-cephalosporic acid], the MIC in experiment [1] was determined as 12.5 µg/mL; in experiment [2], 1.56 µg/mL; in the experiment on Proteus vulgaris GN-76 it was 12.5 µg/mL; in experiment [3], 0.78 µg/mL; in experiment [4], 1.56 µg/mL; in experiment [5], 0.78 µg/mL. Besides, the MIC amounted to 50 µg/mL in experiment [6] and 6.25 µg/mL in experiment [7].
With `CO[C@@]1(NC(=O)C(NC(=O)c2ccc(O)c(O)c2)c2csc(N)n2)C(=O)N2C(C(=O)O)=C(CSc3nnnn3C)CS[C@@H]21` (mixture of isomers) [Example 12, 7α-methoxy-7β-[DL-2-(3,4-dihydroxy-benzoylamino)-2-(2-aminothiazol-4-yl)acetamido]-3-(l-methyl-lH-tetrazol-5-yl-thiomethyl)-3-cephem-4-carboxylic acid], the MIC in experiment [1] came to 6.25 µg/mL; in experiment [2] it was 0.1 µg/mL; with Proteus vulgaris GN-76 it was 1.56 µg/mL; in experiment [3], 0.2 µg/mL; in experiment [4], 0.39 µg/mL; in experiment [5], 0.2 µg/mL. Further, the values for the MIC in experiment [6] and in experiment [7] were 0.78 µg/mL and 1.56 µg/mL, respectively.
On to `CC(=O)OCC1=C(C(=O)O)N2C(=O)[C@@H](NC(=O)C(NC(=O)c3cccc(O)c3)c3csc(N)n3)[C@H]2SC1` (mixture of isomers) [Example 23, 73-[DL-2-(3-hydroxybenzoylamino)-2-(2-aminothiazol-4-yl)acetamidolcephalosporic acid], for which the MIC is 6.25 µg/mL in experiment [1]; 12.5 µg/mL in experiment [2]; 25 µg/mL with Proteus vulgaris GN-76; above 200 µg/mL in experiment [3]; above 200 µg/mL in experiment [4]; above 200 µg/mL in experiment [5]. In addition, the results for the MIC in experiment [6] and in experiment [7] were above 200 µg/mL and 0.39 µg/mL, respectively.
As to `Cn1nnnc1SCC1=C(C(=O)O)N2C(=O)[C@@H](NC(=O)C(NC(=O)c3ccc(O)c(O)c3)c3csc(N)n3)[C@H]2SC1` (mixture of isomers) [Example 2, 7β-[DL-2-(3,4-dihydroxybenzoylamino)-2-(2-aminothiazol-4-yl)acetamido]-3-(1-methyl-1H-tetrazol-5-yl-thiomethyl)-3-cephem-4-carboxylic acid], the MIC amounted to 0.78 µg/mL in experiment [1]; 0.2 µg/mL in experiment [2]; 6.25 µg/mL in the experiment on Proteus vulgaris GN-76; 0.39 µg/mL in experiment [3]; 0.1 µg/mL in experiment [4]; 0.2 µg/mL in experiment [5]. In addition, the MIC in experiment [6] is 100 µg/mL; in experiment [7] it was 0.39 µg/mL.
As for `CO[C@@]1(NC(=O)C(NC(=O)c2ccc(OC(C)=O)c(OC(C)=O)c2)c2csc(N)n2)C(=O)N2C(C(=O)O)=C(COC(C)=O)CS[C@@H]21` (mixture of isomers) [Example 6, 7α-methoxy-7β-[DL-2-(3,4-diacetoxy-benzoylamino)-2-(2-aminothiazol-4-yl)acetamido]-cephalosporic acid], the MIC in experiment [1] came to 3.12 µg/mL; in experiment [2] it was 0.39 µg/mL; in the experiment with Proteus vulgaris GN-76 it was 12.5 µg/mL; in experiment [3], 0.78 µg/mL; in experiment [4], 1.56 µg/mL; in experiment [5], 0.78 µg/mL. The MIC was 6.25 µg/mL in experiment [6] and 1.56 µg/mL in experiment [7].
In the case of `CC(=O)OCC1=C(C(=O)O)N2C(=O)[C@@H](NC(=O)C(NC(=O)c3cc(O)c(O)c(O)c3)c3csc(N)n3)[C@H]2SC1` (mixture of isomers) [Example 25, 7β-[DL-2-(3,4,5-trihydroxy-benzoylamino)-2-(2-aminothiazol-4-yl)acetamido]-cephalosporic acid], the MIC is 0.2 µg/mL in experiment [1]; 0.1 µg/mL in experiment [2]; 1.56 µg/mL in the experiment with Proteus vulgaris GN-76; 0.2 µg/mL in experiment [3]; 0.39 µg/mL in experiment [4]; 0.1 µg/mL in experiment [5]. Further, the figures for the MIC in experiment [6] and in experiment [7] were above 100 µg/mL and 0.2 µg/mL, respectively.
As to `CCOC(=O)Oc1ccc(C(=O)NC(C(=O)N[C@]2(OC)C(=O)N3C(C(=O)O)=C(COC(C)=O)CS[C@@H]32)c2csc(N)n2)cc1OC(=O)OCC` (mixture of isomers) [Example 13, 7α -methoxy-7β-[DL-2-(3,4-diethoxy-carbonyloxybenzoylamino)-2-(2-aminothiazol-4-yl)-acetamido]cephalosporic acid], the MIC amounted to 12.5 µg/mL in experiment [1]; 0.39 µg/mL in experiment [2]; 6.25 µg/mL in the experiment with Proteus vulgaris GN-76; 0.78 µg/mL in experiment [3]; 1.56 µg/mL in experiment [4]; 0.78 µg/mL in experiment [5]. Also, the values for the MIC in experiment [6] and in experiment [7] were 3.12 µg/mL and 1.56 µg/mL, respectively.
As to `CC(=O)Oc1cccc(C(=O)NC(C(=O)N[C@@H]2C(=O)N3C(C(=O)O)=C(CSc4nnnn4C)CS[C@H]23)c2csc(N)n2)c1OC(C)=O` (mixture of isomers) [Example 4, 7β-[DL-2-(2,3-diacetoxybenzoylamino)-2-(2-aminothiazol-4-yl)acetamidol-3-(l-methyl-lH-tetrazol-5-yl-thiomethyl)-3-cephem-4-carboxylic acid], the MIC worked out at 3.12 µg/mL in experiment [1]; 1.56 µg/mL in experiment [2]; 3.12 µg/mL in the experiment on Proteus vulgaris GN-76; 1.56 µg/mL in experiment [3]; 0.39 µg/mL in experiment [4]; 0.78 µg/mL in experiment [5]. Besides, the MIC in experiment [6] amounted to 200 µg/mL; in experiment [7] it was 1.56 µg/mL.
Regarding `CO[C@@]1(NC(=O)C(NC(=O)c2ccc(O)c(O)c2)c2csc(N)n2)C(=O)N2C(C(=O)O)=C(COC(C)=O)CS[C@@H]21` (mixture of isomers) [Example 9, 7α-methoxy-7β-[DL-2-(3,4-dihydroxy-benzoylamino)-2-(2-aminothiazol-4-yl)acetamidolcephalosporic acid], the MIC came to 12.5 µg/mL in experiment [1]; 0.39 µg/mL in experiment [2]; 3.12 µg/mL with Proteus vulgaris GN-76; 0.39 µg/mL in experiment [3]; 0.78 µg/mL in experiment [4]; 0.39 µg/mL in experiment [5]. Moreover, the MIC stood at 3.12 µg/mL in experiment [6] and 1.56 µg/mL in experiment [7].
In the case of `CCOC(=O)Oc1ccc(C(=O)NC(C(=O)N[C@@H]2C(=O)N3C(C(=O)O)=C(COC(C)=O)CS[C@H]23)c2csc(N)n2)cc1OC(=O)OCC` (mixture of isomers) [Example 19, 7β-[DL-2-(3,4-diethoxycarbonyloxy-benzoylamino)-2-(2-aminothiazol-4-yl)acetamido]-cephalosporic acid], the MIC in experiment [1] came out at 0.39 µg/mL; in experiment [2], 0.05 µg/mL; in the experiment on Proteus vulgaris GN-76, 0.39 µg/mL; in experiment [3], 0.2 µg/mL; in experiment [4], 0.2 µg/mL; in experiment [5], 0.05 µg/mL. The MIC was 6.25 µg/mL in experiment [6] and 0.39 µg/mL in experiment [7].
